Measured values published in patent publication US10717766B2, “Antimicrobial peptides and uses thereof” (TECHNION RESEARCH & DEVELOPMENT FOUNDATION LIMITED, priority 2016, dated 2020).
Like-named read-outs stand apart in the source and are kept apart here.

Columns and labels:
Staphylococcus hominis [1] = assay: growth of Staphylococcus hominis after treatment with 0.5 mM peptide; type: cell-based; details: 24 hours, 37° C. under agitation, FIG. 6
Procedure: (§1) Extended fragments of the LFKFFK (SEQ ID NO: 1) sequence were derived from Staphylococcus aureus (PSMα3 derivatives) in order to determine the minimum peptide length critical for the antibacterial activity. […] Therefore, the antibacterial activity of its fragments comprising SEQ ID NO: 1, as listed in Table 1, were examined on the growth of Staphylococcus epidermidis ATCC 12228 cells, Staphylococcus hominis, and Lactobacillus casei after 24 hours from treatment with 0.5 mM peptide at 37° C. under agitation compared to control (bacterial growth w/o peptide). Lactobacillus casei are probiotic bacteria. Therefore, the peptides listed in Table 1 were also tested against bacteria of the human flora.

Staphylococcus hominis [2] = assay: minimal inhibition concentration (MIC) against Staphylococcus hominis; type: cell-based; details: O.D600 nm after 24 hours incubation at 37° C. with agitation, FIG. 4
Procedure: N-terminal acetylation of peptides is known to enhance fibril formation. Therefore, the bacterial growth of Staphylococcus hominis was tested by capped peptides of SEQ ID NO: 1 and 2. […] The lowest concentration at which no growth was observed is determined as the MIC. The experiment was performed in triplicates.

[3] = test system: Staphylococcus epidermidis ATCC 12228; assay: antibacterial activity (MIC) of fragments against Staphylococcus epidermidis ATCC 12228; type: cell-based; details: FIG. 5
Procedure: as §1

Micrococcus luteus = assay: diameter of the growth inhibition of Micrococcus luteus cells; type: cell-based; details: for growth inhibition of Micrococcus luteus: FIG. 2A; for diameter of the growth inhibition of Micrococcus luteus: various concentrations
Description: The anti-bacterial activity of LFKFFK peptide (SEQ ID NO: 1), KLFKFFK peptide (SEQ ID NO: 3) and control peptides with a hydrophobic/cationic amino-acid composition, IIKVIK (SEQ ID NO: 10) and IIKIIK (SEQ ID NO: 11), was examined by determining the diameter of the growth inhibition of Micrococcus luteus cells.

bacteria = details: native full-length 22-residue peptide, cited from earlier work

## Ac-KLFKFFK-NH2 (listed as Staphylococcus aureus) [compound 2]
Staphylococcus hominis [1]
  antibacterial effect against S. hominis (growth compared to control w/o peptide): partially active
Staphylococcus hominis [2]
  MIC: 15

## Ac-VAKLFKFFKDLLGKFL-NH2 (listed as Staphylococcus aureus) [peptide 8]
[3]
  anti-bacterial activity (MIC) against Staphylococcus epidermidis ATCC 12228: fails to exhibit any antibacterial activity

## Ac-KLFKFFKDLLG-NH2 (listed as Staphylococcus aureus) [compound 6]
[3]
  anti-bacterial activity (MIC) against Staphylococcus epidermidis ATCC 12228: better anti-bacterial activity

## Ac-LFKFFK-NH2 (listed as Staphylococcus aureus) [compound 1]
Staphylococcus hominis [1]
  antibacterial effect against S. hominis (growth compared to control w/o peptide): partially active

## Ac-KLFKFFKD-NH2 (listed as Staphylococcus aureus) [compound 3]
Staphylococcus hominis [1]
  antibacterial effect against S. hominis (growth compared to control w/o peptide): partially active

## LFKFFK (listed as Staphylococcus aureus) [fragment of PSMalpha3]
Micrococcus luteus
  growth inhibition of Micrococcus luteus: inhibit the growth
Micrococcus luteus; FIG. 2B
  diameter of the growth inhibition of Micrococcus luteus: dose-dependent effect

## Ac-KLFKFFKDLL-NH2 (listed as Staphylococcus aureus) [compound 5]
[3]
  anti-bacterial activity (MIC) against Staphylococcus epidermidis ATCC 12228: better anti-bacterial activity

## KLFKFFK (listed as Staphylococcus aureus)
Micrococcus luteus
  growth inhibition of Micrococcus luteus: inhibit the growth
Micrococcus luteus; FIG. 2B
  toxicity to Micrococcus Luteus compared with LFKFFK: even more toxic
  diameter of the growth inhibition of Micrococcus luteus: dose-dependent effect

## MEFVAKLFKFFKDLLGKFLGNN [PSMalpha3]
bacteria
  antibacterial activity: lacks antibacterial activity
bacteria; listed as SEQ ID NO: 2
  antibacterial activity: lack an antibacterial activity
